# Results published in US12185720B2, “Chitooligosaccharides and methods for use in enhancing plant growth” (NOVOZYMES BIOAG A/S, priority 2011, dated 2025).
# Key:
# [1] = tested on: Hybrid corn seeds (92L90); assay: Corn seed treatment (greenhouse, two trials); assay type: in vivo; conditions: 3 fl oz/100 lbs of seed; for dry weight increase over LCO: 10^-8 M
# Description: Two seed treatment experiments using only Pea LCO, Pea CO and the CO mixtures obtained from chitosan by enzymatic process (structurally distinct from the Pea CO, and also referred to in the examples as the “China CO”) were performed in greenhouse. Hybrid corn seeds (92L90, Peterson Farm, USA) were treated with treatment solution (10^-8 M) at the rate of 3 fl oz/100 lbs of seed. Seeds were planted in plastic pots containing 1:1 Sand:Perlite mixture. Seeds were allowed to grow for about 3-4 weeks and then they were harvested and their dry weight measured.
# [2] = tested on: Siratro (Macroptelium atropurpureum) root segments; assay: Root hair deformation bioassay, Siratro; conditions: 4 hours in the dark, FIG. 14
# Description: Siratro (Macroptelium atropurpureum) seeds were germinated on moist filter paper in petriplates. When seedlings roots are about 1-inches long, they are severed from the seedlings and treated with 2 ml of 10^−8M treatment solutions in test tubes for 4 hours in the dark. After treatment time is over the solutions are dyed with Congo Red for 10 minutes. After that root segments are observed under a compound microscope to count the number of deformed root hairs in the most sensitive zone of the root segment. Root hair deformation bioassay was also performed using Red Clover in a similar fashion like Siratro above and only visual observation was made and recorded in text form.
# [3] = tested on: Tomato seeds of hybrid tomato var. Royal Mounty; assay: In vitro tomato seedling root growth bioassay (agar medium); assay type: in vivo; conditions: for tomato seedling root length, compared to LCO: 22° C., FIG. 5
# Description: Tomato seeds of hybrid tomato var. Royal Mounty were surface sterilized with 10% bleach solution for 10 minutes followed by 3 rinses with sterilized distilled water. Seeds were then dried in a laminar air flow hood for 3 hours. Seeds were then placed in petri-dishes on solidified agar medium containing various concentrations of different sources of the LCO illustrated in FIG. 1b (manufactured by Darmstadt, Germany and Grenoble, France) (also referred to in the examples as the “soybean LCO”) and the inventive CO illustrated in FIG. 2a (also referred to in the examples as the “pea CO” or “CO-V”). Seedling roots were measured by a hand ruler and root fresh weights were taken in a micro balance at day 7. Growth study was done in a growth chamber at 22° C.
# canola seeds = assay: Canola seed germination in petriplates; assay type: in vivo; conditions: 10^−9 M
# Description: (§1) In petriplates on moist filter paper moistened with 10^−9 M treatment solution, canola and wheat seeds were plated for germination. At 18 h after plating, Pea CO induced more canola and wheat seed germination as compared to Pea LCO. Over the period of 21 to 24 hours, seed germination rate for LCO and CO leveled up.
# corn = assay: Corn field trials, foliar application, grain yield; assay type: in vivo
# Sorghum seeds = assay: Sorghum seed germination in petriplates; assay type: in vivo; conditions: CO 10^−8 M, LCO 10^−8 M alone or CO 10^−8 with LCO 10^−9; after 5 days; FIG. 29
# Description: Sorghum seeds were germinated in petriplates containing liquid treatment solutions. Seedlings were harvested after 5 days and their roots were measured using WinRHIZO scanner.
# [4] = tested on: wheat seeds (spring wheat); assay: Wheat seed germination and root length in petriplates (Example 8); assay type: in vivo; conditions: 5 days after plating; FIG. 20
# Description: Corn and wheat seeds were plated in petriplates containing 5 ml of treatment solution on a filter paper. Corn seeds were placed on moist filter paper for germination. Similarly, wheat seeds (spring wheat) were placed in petriplates. […] Roots were harvested and their length measured by WinRhizo system.
# [5] = tested on: Soybean seeds (Jung seed, var. 8168NRR); assay: Treatment of soybean seed with various actives (greenhouse); assay type: in vivo
# Description: Soybean seeds (Jung seed, var. 8168NRR) were treated with various active molecules. Seeds were treated with a liquid dose rate of 3 fl oz/100 lbs of seed. Seeds were allowed to dry for a 2 hours and planted in greenhouse in plastic pots containing 1:1 sand:perlite mixture. Seedlings were grown for 4 wks with occasional liquid fertilizer applications and then the plants were harvested. The central leaflet from the 2nd trifoliate (from down to top) was isolated and measured for surface area on a WinRhizo scanner. The rest of the plants were used for plant dry weight (DW).
# wheat seeds = assay: Wheat seed germination in petriplates (Example 6); assay type: in vivo; conditions: 10^−9 M
# Description: as §1
compound,measurement,setting,value
CC(=O)NC1C(O)OC(CO)C(OC2OC(CO)C(OC3OC(CO)C(OC4OC(CO)C(OC5OC(CO)C(O)C(O)C5N)C(O)C4NC(C)=O)C(O)C3NC(C)=O)C(O)C2NC(C)=O)C1O (centres unmarked) [Pea CO],dry weight increase over LCO,"[1]; first trial, FIG. 10",11.84%
same,dry weight increase over LCO,"[1]; second trial, FIG. 11",12.63%
same,"shoot, root and total biomass increase over LCO","[1]; treatment solution 10^-8 M, 3-4 weeks, both experiments",greater
same,root hair deformation,[2]; 10^−8M treatment solutions,induced root hair deformation
same,root hair deformation compared to LCO or CO,[2]; 10^−8M,equal to LCO
same,"average root growth from all 3 concentrations, compared to LCOs",[3]; FIGS. 7 and 8,significantly better than LCOs
same,"seedling root fresh weight, compared to LCO","[3]; all three levels of concentrations (10^−7, 10^−8 and 10^−9 M), day 7, FIG. 6",outperformed LCO
same,"tomato seedling root length, compared to LCO","[3]; at 10^−7M and 10^−9M, day 7",better
same,"tomato seedling root length, compared to LCO","[3]; at 10^−8M, day 7",equal
same,"root fresh weight, compared to control seedlings","[3]; day 7, control water",significantly better than control seedlings
same,"root length, compared to control seedlings","[3]; day 7, control water",significantly better than control seedlings
same,seed germination at 18 h as compared to Pea LCO,canola seeds; FIG. 15,more
same,seed germination rate over 21 to 24 hours,canola seeds; LCO versus CO,leveled up
same,"YIELD, Response Increase",corn,4.8 % of Control
same,CO mean yield better than foliar LCO,corn; CO minus LCO,5.0 bu/A
same,higher yield increase than foliar LCO,corn; CO minus LCO,2.6%
same,"trials with a positive response, better than foliar LCO",corn; CO minus LCO,18.8%
same,yield enhancement as a foliar treatment (conclusion),corn; CO versus LCO,at least twice better
same,"YIELD, Mean (N = 16)",corn; four ounces per acre with glyphosate,201.8 bu/A
same,"YIELD, Response",corn; over Control,9.2 bu/A
same,Positive Yield Response,corn; percent of the 16 trials,93.8%
same,sorghum seedling root length,Sorghum seeds,increased seedling root length
same,increase in root length in wheat,[4],not statistically significant but consistently greater
same,"wheat root length, CO compared to LCO",[4],outperformed LCO
same,"plant dry weights (shoot, root or total plant biomass)","[5]; another experiment, vs soybean LCO, isoflavonoids, water, FIG. 13",highest plant dry weights
same,leaf surface area,"[5]; seed treatment 3 fl oz/100 lbs of seed, 4 wks, central leaflet of 2nd trifoliate, vs control (water), FIG. 12",significant increase
same,"leaf surface area, among the three actives (pea LCO, pea CO, China CO)","[5]; seed treatment, 4 wks, FIG. 12",highest leaf surface area
same,seed germination at 18 h as compared to Pea LCO,wheat seeds; FIG. 16,more
same,seed germination rate over 21 to 24 hours,wheat seeds; LCO versus CO,leveled up
